Measured values from ChEMBL document CHEMBL5376003, “Structure-Activity Relationship of FL118 Platform Position 7 Versus Position 9-Derived Compounds and Their Mechanism of Action and Antitumor Activity” (J Med Chem, 2023).
The source made the active and inactive calls.

What was measured:
[1] = system: HCT-116; assay: Induction of apoptosis in human HCT-116 cells assessed as downregulation of TYMS gene expression at 10 to 500 nM incubated for 6 to 48 hrs by RNA analysis; format: functional, cell-based; settings: dose 10-500 nM, time 6-48 hrs
[2] = system: HCT-116; assay: Induction of apoptosis in human HCT-116 cells assessed as downregulation of NUP210 gene expression at 10 to 500 nM incubated for 6 to 48 hrs by RNA analysis; format: functional, cell-based; settings: dose 10-500 nM, time 6-48 hrs
[3] = system: HCT-116; assay: Induction of apoptosis in human HCT-116 cells assessed as modulation of DDX6 mRNA expression at 10 to 500 nM incubated for 6 to 48 hrs by RNA analysis; format: functional, cell-based; settings: dose 10-500 nM, time 6-48 hrs
[4] = system: HCT-116; assay: Induction of apoptosis in human HCT-116 cells assessed as upregulation of DDX5 mRNA expression at 50 nM incubated for 24 hrs by RNA analysis; format: functional, cell-based
[5] = system: HCT-116; assay: Induction of apoptosis in human HCT-116 cells assessed as downregulation of NT5C gene expression at 10 to 500 nM incubated for 6 to 48 hrs by RNA analysis; format: functional, cell-based; settings: dose 10-500 nM, time 6-48 hrs
[6] = system: HCT-116; assay: Induction of apoptosis in human HCT-116 cells assessed as downregulation of GART gene expression at 10 to 500 nM incubated for 6 to 48 hrs by RNA analysis; format: functional, cell-based; settings: dose 10-500 nM, time 6-48 hrs
[7] = system: HCT-116; assay: Induction of apoptosis in human HCT-116 cells assessed as modulation of DDX47 mRNA expression at 10 to 500 nM incubated for 6 to 48 hrs by RNA analysis; format: functional, cell-based; settings: dose 10-500 nM, time 6-48 hrs
[8] = system: HCT-116; assay: Induction of apoptosis in human HCT-116 cells assessed as downregulation of TPI1 gene expression at 10 to 500 nM incubated for 6 to 48 hrs by RNA analysis; format: functional, cell-based; settings: dose 10-500 nM, time 6-48 hrs
[9] = system: HCT-116; assay: Induction of apoptosis in human HCT-116 cells assessed as modulation of DDX55 mRNA expression at 10 to 500 nM incubated for 6 to 48 hrs by RNA analysis; format: functional, cell-based; settings: dose 10-500 nM, time 6-48 hrs
[10] = system: HCT-116; assay: Induction of apoptosis in human HCT-116 cells assessed as downregulation of LIPE gene expression at 10 to 500 nM incubated for 6 to 48 hrs by RNA analysis; format: functional, cell-based; settings: dose 10-500 nM, time 6-48 hrs
[11] = system: HCT-116; assay: Induction of apoptosis in human HCT-116 cells assessed as upregulation of GADD45A mRNA expression at 10 to 500 nM incubated for 6 to 48 hrs by RNA analysis; format: functional, cell-based; settings: dose 10-500 nM, time 6-48 hrs
[12] = system: HCT-116; assay: Induction of apoptosis in human HCT-116 cells assessed as downregulation of AK2 gene expression at 10 to 500 nM incubated for 6 to 48 hrs by RNA analysis; format: functional, cell-based; settings: dose 10-500 nM, time 6-48 hrs
[13] = system: HCT-116; assay: Activation of innate immune response in human HCT-116 cells assessed as upregulation of CASP1 gene expression at 10 to 500 nM incubated for 6 to 48 hrs by RNA analysis; format: functional, cell-based; settings: dose 10-500 nM, time 6-48 hrs
[14] = system: HCT-116; assay: Induction of apoptosis in human HCT-116 cells assessed as downregulation of MCL-1 protein expression incubated for 48 hrs by Western blotting analysis; format: functional, cell-based
[15] = system: HCT-116; assay: Induction of apoptosis in human HCT-116 cells assessed as increase in intracellular ROS level at 10 to 1000 nM incubated for 12 hrs by DCFH-DA staining based fluorescence microscopy; format: functional, cell-based; settings: dose 10-1000 nM
[16] = system: HCT-116; assay: Activation of innate immune response in human HCT-116 cells assessed as upregulation of IL-12B gene expression at 10 to 500 nM incubated for 6 to 48 hrs by RNA analysis; format: functional, cell-based; settings: dose 10-500 nM, time 6-48 hrs
[17] = system: HCT-116; assay: Activation of innate immune response in human HCT-116 cells assessed as upregulation of IRF3 gene expression at 10 to 500 nM incubated for 6 to 48 hrs by RNA analysis; format: functional, cell-based; settings: dose 10-500 nM, time 6-48 hrs
[18] = system: HCT-116; assay: Induction of apoptosis in human HCT-116 cells assessed as modulation of TOP1 mRNA expression at 10 to 500 nM incubated for 6 to 48 hrs by RNA analysis; format: functional, cell-based; settings: dose 10-500 nM, time 6-48 hrs
[19] = system: HCT-116; assay: Induction of apoptosis in human HCT-116 cells assessed as downregulation of CTPS2 gene expression at 10 to 500 nM incubated for 6 to 48 hrs by RNA analysis; format: functional, cell-based; settings: dose 10-500 nM, time 6-48 hrs
[20] = system: MCF7; assay: Growth inhibition of human MCF7 cells incubated for 48 hrs by MTT reagent based ELISA reader analysis; format: functional, cell-based; settings: MCF7, 48 h
[21] = system: HCT-116; assay: Induction of apoptosis in human HCT-116 cells assessed as downregulation of PPP2CA gene expression at 10 to 500 nM incubated for 6 to 48 hrs by RNA analysis; format: functional, cell-based; settings: dose 10-500 nM, time 6-48 hrs
[22] = system: HCT-116; assay: Induction of apoptosis in human HCT-116 cells assessed as downregulation of PUDP gene expression at 10 to 500 nM incubated for 6 to 48 hrs by RNA analysis; format: functional, cell-based; settings: dose 10-500 nM, time 6-48 hrs
[23] = system: HCT-116; assay: Inhibition of cell migration in human HCT-116 cells assessed as intercellular distance at 5 nM incubated for 24 hrs by inverted phase-contrast microscopic analysis (reference value: 1 +/- 0.2 millimeter); format: functional
[24] = system: HCT-116; assay: Induction of apoptosis in human HCT-116 cells assessed as modulation of DDX17 mRNA expression at 10 to 500 nM incubated for 6 to 48 hrs by RNA analysis; format: functional, cell-based; settings: dose 10-500 nM, time 6-48 hrs
[25] = system: HCT-116; assay: Induction of apoptosis in human HCT-116 cells assessed as upregulation of XPC mRNA expression at 10 to 500 nM incubated for 6 to 48 hrs by RNA analysis; format: functional, cell-based; settings: dose 10-500 nM, time 6-48 hrs
[26] = system: HCT-116; assay: Induction of apoptosis in human HCT-116 cells assessed as modulation of TOP2A mRNA expression at 10 to 500 nM incubated for 6 to 48 hrs by RNA analysis; format: functional, cell-based; settings: dose 10-500 nM, time 6-48 hrs
[27] = system: HCT-116; assay: Induction of apoptosis in human HCT-116 cells assessed as downregulation of BIRC5 mRNA expression at 10 to 500 nM incubated for 6 to 48 hrs by RNA analysis; format: functional, cell-based; settings: dose 10-500 nM, time 6-48 hrs
[28] = system: HCT-116; assay: Induction of apoptosis in human HCT-116 cells assessed as downregulation of NT5C2 gene expression at 10 to 500 nM incubated for 6 to 48 hrs by RNA analysis; format: functional, cell-based; settings: dose 10-500 nM, time 6-48 hrs
[29] = system: HCT-116; assay: Induction of apoptosis in human HCT-116 cells assessed as downregulation of GTF2H1 mRNA expression at 10 to 500 nM incubated for 6 to 48 hrs by RNA analysis; format: functional, cell-based; settings: dose 10-500 nM, time 6-48 hrs
[30] = system: HCT-116; assay: Induction of apoptosis in human HCT-116 cells assessed as downregulation of DPYD gene expression at 10 to 500 nM incubated for 6 to 48 hrs by RNA analysis; format: functional, cell-based; settings: dose 10-500 nM, time 6-48 hrs
[31] = system: HCT-116; assay: Activation of innate immune response in human HCT-116 cells assessed as upregulation of IFIH1 gene expression at 10 to 500 nM incubated for 6 to 48 hrs by RNA analysis; format: functional, cell-based; settings: dose 10-500 nM, time 6-48 hrs
[32] = system: HCT-116; assay: Induction of apoptosis in human HCT-116 cells assessed as downregulation of HK2 gene expression at 10 to 500 nM incubated for 6 to 48 hrs by RNA analysis; format: functional, cell-based; settings: dose 10-500 nM, time 6-48 hrs
[33] = system: HCT-116; assay: Induction of apoptosis in human HCT-116 cells assessed as downregulation of SLC25A13 gene expression at 10 to 500 nM incubated for 6 to 48 hrs by RNA analysis; format: functional, cell-based; settings: dose 10-500 nM, time 6-48 hrs
[34] = system: HCT-116; assay: Induction of apoptosis in human HCT-116 cells assessed as downregulation of HPRT1 gene expression at 10 to 500 nM incubated for 6 to 48 hrs by RNA analysis; format: functional, cell-based; settings: dose 10-500 nM, time 6-48 hrs

CCc1ccc(-c2c3c(nc4cc5c(cc24)OCO5)-c2cc4c(c(=O)n2C3)COC(=O)[C@]4(O)CC)cc1
inactive: Activity [4]
47.4 nM: IC50 [20]
1.3 mm: Activity [23]
active: Activity [1] | Activity [2] | Activity [3] | Activity [5] | Activity [6] | Activity [7] | Activity [8] | Activity [9] | Activity [10] | Activity [11] | Activity [12] | Activity [13] | Activity [14] | Activity [15] | Activity [16] | Activity [17] | Activity [18] | Activity [19] | Activity [21] | Activity [22] | Activity [24] | Activity [25] | Activity [26] | Activity [27] | Activity [28] | Activity [29] | Activity [30] | Activity [31] | Activity [32] | Activity [33] | Activity [34]

CC[C@@]1(O)C(=O)OCc2c1cc1n(c2=O)Cc2c-1nc1cc3c(cc1c2-c1cc(OC)cc(OC)c1)OCO3
< 6.4 nM: IC50 [20]
active: Activity [1] | Activity [2] | Activity [3] | Activity [5] | Activity [6] | Activity [8] | Activity [9] | Activity [10] | Activity [11] | Activity [12] | Activity [14] | Activity [15] | Activity [16] | Activity [17] | Activity [18] | Activity [19] | Activity [21] | Activity [22] | Activity [24] | Activity [25] | Activity [26] | Activity [27] | Activity [28] | Activity [29] | Activity [31] | Activity [32] | Activity [33]
inactive: Activity [4]
1.5 mm: Activity [23]
